The data set can be described thus: Precipitate generation prevention experiment of liquid formulation under accelerated storage. It counts as physicochemical. More on the design: key: O: Generated; X: Non-Generated. The conditions noted are these: for Whether or not a precipitate is generated: 1.0% malic acid, 0.3% sodium borate; for Result: whether or not a precipitate is generated: chlorhexidine gluconate 0.1, terbinafine hydrochloride 0.1, ethanol 59 wt %. From the text: As described above, most liquid medicines include excipients including chloride ions, and the composition of the present invention in combination with terbinafine hydrochloride may also cause precipitation. However, it may further include malic acid and sodium borate to prevent the generation of precipitates of terbinafine hydrochloride. Hereinafter, a description will be given of the precipitate generation experiments of terbinafine hydrochloride.
First, a liquid formulation containing terbinafine hydrochloride, chlorhexidine gluconate and ciclopirox olamine is prepared as shown in the following [Table 3]. Malic acid or polycarboxylic acid other than malic acid is added to the prepared liquid formulation, and the presence or absence of a precipitate is observed.
First, malic acid, citric acid, oxalic acid and tartaric acid are prepared as a polycarboxylic acid such as malic acid. To the liquid formulation prepared in the above [Table 3], polycarboxylic acid was added in 0.1, 0.3, 0.5, 0.7, 1.0, 2.0, 3.0, 4.0, 5.0 (w/v %), respectively, and then chlorhexidine gluconate is adjusted to a stable pH of 5.0 using a pH adjusting agent. And, the liquid formulations were stored under accelerated conditions of 40±2° C. and relative humidity of 75±5% to observe the presence or absence of precipitates. […]
Next, after adding 1.0% of malic acid and 0.3% of sodium borate, an experiment is performed to determine whether precipitates are generated by adjusting the content of chlorhexidine gluconate, terbinafine hydrochloride, and ciclopirox olamine. The experimental results are shown in the following [Table 6] and [Table 7], and experiments were performed on whether or not precipitates of the liquid formulations prepared without adding malic acid and sodium borate are generated were shown in [Table 8].

Where [1] appears, read: concentration of the ingredient 0.1 %.
Setting [2] is: concentration of the ingredient 0.3 %.
[3] abbreviates: concentration of the ingredient 0.5 %.
The mark [4] stands for this setting: concentration of the ingredient 1.0 %.
Where [5] appears, read: concentration of the ingredient 2.0 %.
The mark [6] stands for this setting: concentration of the ingredient 3.0 %.
Where [7] appears, read: concentration of the ingredient 4.0 %.
The mark [8] stands for this setting: concentration of the ingredient 5.0 %.
The mark [9] stands for this setting: concentration of the ingredient 6.0 %.

The results in this text go back to US20210045986A1, “COMPOSITION FOR PREVENTION OR TREATMENT OF SKIN INFECTION” (CARESIDE CO., LTD., priority 2018, published 2021).

Regarding `N=C(NCCCCCCNC(=N)NC(=N)Nc1ccc(Cl)cc1)NC(=N)Nc1ccc(Cl)cc1` [Chlorhexidine Gluconate, chlorhexidine gluconate], the “Whether or not a precipitate is generated” value is recorded as “X” under setting [1]; “X” under setting [2]; “X” under setting [3]; “X” under setting [4]; “X” under setting [5]; “X” under setting [6]. The “Whether or not a precipitate is generated” value under setting [7] is given as “X”, the “Whether or not a precipitate is generated” value under setting [8] was “O” and the “Whether or not a precipitate is generated” value under setting [9] is “O”.

On to `Cc1cc(C2CCCCC2)n(O)c(=O)c1` [Ciclopirox Olamine, 2(1H)-Pyridinone, 6-cyclohexyl-1-hydroxy-4-methyl-compound with 2-aminoethanol (1:1)], for which the “Result: whether or not a precipitate is generated” value was “X” (ciclopirox olamine 0.1 wt %, malic acid and sodium borate, pH 5.3~5.7); “O” (ciclopirox olamine 0.1 wt %, without malic acid and sodium borate, pH adjustment x); “O” (ciclopirox olamine 0.2 wt %, without malic acid and sodium borate, pH adjustment x); “X” (ciclopirox olamine 0.3 wt %, malic acid and sodium borate, pH 5.3~5.7); “O” (ciclopirox olamine 0.3 wt %, without malic acid and sodium borate, pH adjustment x); “O” (ciclopirox olamine 0.4 wt %, without malic acid and sodium borate, pH adjustment x). The “Result: whether or not a precipitate is generated” value (ciclopirox olamine 0.5 wt %, malic acid and sodium borate, pH 5.3~5.7) is “X”; the “Result: whether or not a precipitate is generated” value (ciclopirox olamine 0.5 wt %, without malic acid and sodium borate, pH adjustment x) was “O”; the “Result: whether or not a precipitate is generated” value (ciclopirox olamine 0.6 wt %, without malic acid and sodium borate, pH adjustment x) is “O”; the “Result: whether or not a precipitate is generated” value (ciclopirox olamine 0.7 wt %, without malic acid and sodium borate, pH adjustment x) was “O”; the “Result: whether or not a precipitate is generated” value (ciclopirox olamine 0.8 wt %, without malic acid and sodium borate, pH adjustment x) is on record as “O”; the “Result: whether or not a precipitate is generated” value (ciclopirox olamine 0.9 wt %, without malic acid and sodium borate, pH adjustment x) is recorded as “O”. Further, the “Result: whether or not a precipitate is generated” value by setting is: (ciclopirox olamine 1.0 wt %, malic acid and sodium borate, pH 5.3~5.7) “X”; (ciclopirox olamine 2.0 wt %, malic acid and sodium borate, pH 5.3~5.7) “X”; (ciclopirox olamine 3.0 wt %, malic acid and sodium borate, pH 5.3~5.7) “X”; (ciclopirox olamine 4.0 wt %, malic acid and sodium borate, pH 5.3~5.7) “X”; (ciclopirox olamine 5.0 wt %, malic acid and sodium borate, pH 5.3~5.7) “X”; (ciclopirox olamine 6.0 wt %, malic acid and sodium borate, pH 5.3~5.7) “X”.

`CN(C/C=C/C#CC(C)(C)C)Cc1cccc2ccccc12.Cl` [Terbinafine hydrochloride, [(2E)-6,6-dimethylhept-2-en-4-yn-1-yl] (methyl) (naphthalen-1-ylmethyl)aminehydrochloride]: the “Whether or not a precipitate is generated” value is, setting by setting: under setting [1], “X”; under setting [2], “X”; under setting [3], “X”; under setting [4], “X”; under setting [5], “X”; under setting [6], “O”. Also, the “Whether or not a precipitate is generated” value is, setting by setting: under setting [7], “O”; under setting [8], “O”; under setting [9], “O”.
